Experimental findings from US9221791B2, “Metalloenzyme inhibitor compounds” (Viamet Pharmaceuticals, Inc., priority 2011, dated 2015) are described below.

Assay [1] deals with Septoria tritici (ATCC 26517). As to the kind of experiment: Minimum Inhibitory Concentration (MIC) (Septoria tritici), CLSI-based microdilution. The class given is cell-based. The settings on record: S. tritici ATCC 26517, 22° C. for seven days, 50% reduction in growth; for MIC: Zymoseptoria tritici, ATCC26517, 168 h, read-out: Septoria Rating (MIC). As to the method: C. Minimum Inhibitory Concentration (MIC) (Septoria tritici)
Compounds of the present disclosure were assessed for their ability to inhibit the growth of a common strain of the fungal plant pathogen Septoria tritici (ATCC 26517) using a procedure based on a Clinical and Laboratory Standards Institute (CLSI) microdilution assay protocol for filamentous fungi.
Stock solutions of the test compounds and standards were prepared in DMSO at 6400 μg/mL. Each stock solution was used to prepare a 2-fold dilution series ranging from 16 to 0.016 μg/mL (total of 11 compound concentrations) in RPMI-1640 (Roswell Park Memorial Institute) medium containing 3-(N-morpholino)propanesulfonic acid (MOPS) buffer and 2% DMSO. A 100 μL aliquot of the dilutions was added to columns 1 (16 μg/mL compound) through 11 (0.016 μg/mL compound) of a 96-well microtiter plate. This format was replicated in a second row of the microtiter plate. Thus, each microtiter plate could include 11 concentrations of four test or control compounds replicated twice. A 100 μL aliquot of RPMI-1640/MOPS/2% DMSO medium was added to column 12 (no compound control) of the microtiter plate.
A fresh culture of S. tritici was used to prepare a solution of approximately 5×10^4 colony-forming units per milliliter (cfu/mL) in RPMI/MOPS medium without DMSO. A 100 µL aliquot of this solution was added to all 96 wells in the microtiter plate. […] The assay plates were incubated at 22° C. for seven days in the dark without shaking.
In each case of Table 3 the Septoria rating scale is as follows: […]
In general terms: Dilution methods test growth across graded concentrations, often in twofold steps.

Assay [2] has as its system Puccinia recondita tritici = Puccinia triticina. As to the kind of experiment: Fungicidal activity vs. leaf rust on wheat plants. The assay is classed as in vivo. The following applies: wheat (variety Yuma) sprayed at 50 ppm, inoculated on the following day, evaluated 7-9 days later; read-out: Puccinia Rating (% Disease Control @ 50 ppm). The source says:
D. Evaluation of Fungicidal Activity Vs. Leaf Rust (Causal Agent Puccinia recondita tritici=Puccinia triticina; Bayer Code PUCCRT). […] Each pot contained 3-8 seedlings. These plants were sprayed until wet with the formulated test compounds. The compounds were formulated at 50 ppm in 10 vol. % acetone plus 90 vol. % Triton X water (deionized water 99.99 wt %+0.01 wt % Triton X100), giving a “formulated test compound.” Formulated test compounds were applied to plants using a turn table sprayer fitted with two opposing air atomization nozzles which delivered approximately 1500 L/ha of spray volume. On the following day, the leaves were inoculated with an aqueous spore suspension of Puccinia recondita tritici and the plants were kept in high humidity overnight to permit spores to germinate and infect the leaf. The plants were then transferred to a greenhouse until disease developed on untreated control plants. Disease severity was evaluated 7-9 days later, depending on the speed of disease development. In each case of Table 3, the Puccinia rating scale is as follows: […]

Structures are written as SMILES. Converted amounts (≈) assume the structure as drawn. Where only a bound is given, the exact number is not on record here.

In general, MIC refers to the lowest concentration found to suppress growth.

As to `OC(Cn1cnnn1)(c1ccc(F)cc1F)C(F)(F)c1ccccn1` (stereo not drawn) [2(−), 2-(2,4-Difluorophenyl)-1,1-difluoro-1-(pyridin-2-yl)-3-(1H-tetrazol-1-yl)propan-2-ol], the MIC in assay [1] was ≤ 0.5 µg/mL. The pest or weed control at 50 ppm in assay [2] is 80 to 100%.

As for `OC(Cn1cnnn1)(c1ccc(F)cc1F)C(F)(F)c1ccc(Br)cn1` (stereo not drawn) [Compound 1, 1-(5-Bromopyridin-2-yl)-2-(2,4-difluorophenyl)-1,1-difluoro-3-(1H-tetrazol-1-yl)propan-2-ol], the MIC in assay [1] was ≤ 0.5 µg/mL. For the same compound, the pest or weed control at 50 ppm in assay [2] was 80 to 100%.

`OC(Cn1cnnn1)(c1ccc(F)cc1F)C(F)(F)c1ccc(F)cn1` (stereo not drawn) [Compound 10, 2-(2,4-Difluorophenyl)-1,1-difluoro-1-(5-fluoropyridin-2-yl)-3-(1H-tetrazol-1-yl)propan-2-ol]: in assay [1], the MIC turned out to be 1.5 µg/mL (≈ 4.04 µM). For the same compound, the pest or weed control at 50 ppm in assay [2] is 80 to 100%.

With `OC(Cn1cnnn1)(c1ccc(F)cc1F)C(F)(F)c1ccc(CC(F)(F)F)cn1` (stereo not drawn) [Compound 17, 2-(2,4-Difluorophenyl)-1,1-difluoro-3-(1H-tetrazol-1-yl)-1-(5-(2,2,2-trifluoroethyl)pyridin-2-yl)propan-2-ol], the MIC in assay [1] is ≤ 0.5 µg/mL. Besides, the pest or weed control at 50 ppm in assay [2] was in the range of 80 to 100%.

As to `OC(Cn1cnnn1)(c1ccc(F)cc1F)C(F)(F)c1ccc(C2CC2)cn1` (stereo not drawn) [Compound 18, 1-(5-Cyclopropylpyridin-2-yl)-2-(2,4-difluorophenyl)-1,1-difluoro-3-(1H-tetrazol-1-yl)propan-2-ol], in assay [1], the MIC is ≤ 0.5 µg/mL. Further, the pest or weed control at 50 ppm in assay [2] was 80 to 100%.

Regarding `OC(Cn1cnnn1)(c1ccc(Cl)cc1F)C(F)(F)c1ccc(Br)cn1` (stereo not drawn) [Compound 22, 1-(5-Bromopyridin-2-yl)-2-(4-chloro-2-fluorophenyl)-1,1-difluoro-3-(1H-tetrazol-1-yl)propan-2-ol], the MIC in assay [1] was ≤ 0.5 µg/mL. Further, the pest or weed control at 50 ppm in assay [2] lay in the range of 80 to 100%.

Regarding `Cc1ccc(C(F)(F)C(O)(Cn2cnnn2)c2ccc(F)cc2F)nc1` (stereo not drawn) [Compound 25, 2-(2,4-Difluorophenyl)-1,1-difluoro-1-(5-methylpyridin-2-yl)-3-(1H-tetrazol-1-yl)propan-2-ol], in assay [1], the MIC was found to be 1.5 µg/mL (≈ 4.08 µM). The pest or weed control at 50 ppm in assay [2] lay within 80 to 100%.

As for `OC(Cn1cnnn1)(c1ccc(Cl)cc1F)C(F)(F)c1ccc(Cl)cn1` (stereo not drawn) [Compound 26, 2-(4-Chloro-2-fluorophenyl)-1-(5-chloropyridin-2-yl)-1,1-difluoro-3-(1H-tetrazol-1-yl)propan-2-ol], the MIC in assay [1] is ≤ 0.5 µg/mL. Further, in assay [2], the pest or weed control at 50 ppm was 80 to 100%.

Take `OC(Cn1cnnn1)(c1ccc(Cl)cc1F)C(F)(F)c1ccc(F)cn1` (stereo not drawn) [Compound 27, 2-(4-Chloro-2-fluorophenyl)-1,1-difluoro-1-(5-fluoropyridin-2-yl)-3-(1H-tetrazol-1-yl)propan-2-ol]: the MIC in assay [1] stood at 1.5 µg/mL (≈ 3.87 µM). The pest or weed control at 50 ppm in assay [2] lay in the range of 80 to 100%.

For `OC(c1cncnc1)(c1ccc(F)cc1F)C(F)(F)c1ccc(Br)cn1` (stereo not drawn) [Compound 58, 2-(5-Bromopyridin-2-yl)-1-(2,4-difluorophenyl)-2,2-difluoro-1-(pyrimidin-5-yl)ethanol], the MIC in assay [1] worked out at 1.5 µg/mL (≈ 3.5 µM).

Turning to `C=CCc1ccc(C(F)(F)C(O)(Cn2cnnn2)c2ccc(F)cc2F)nc1` (stereo not drawn) [Compound 61, 1-(5-Allylpyridin-2-yl)-2-(2,4-difluorophenyl)-1,1-difluoro-3-(1H-tetrazol-1-yl)propan-2-ol], the MIC in assay [1] lay within 1.5 to 4 µg/mL (≈ 3.81 to 10.2 µM).

For `OC(Cc1cc[nH]n1)(c1ccc(F)cc1F)C(F)(F)c1ccc(Br)cn1` (stereo not drawn) [Compound 62, 1-(5-Bromopyridin-2-yl)-2-(2,4-difluorophenyl)-1,1-difluoro-3-(1H-pyrazol-3-yl)propan-2-ol], in assay [1], the MIC is ≤ 0.5 µg/mL.

Consider `OC(Cc1cc[nH]n1)(c1ccc(F)cc1F)C(F)(F)c1ccc(-n2nccn2)cn1` (stereo not drawn) [Compound 63, 1-(5-(2H-1,2,3-Triazol-2-yl)pyridin-2-yl)-2-(2,4-difluorophenyl)-1,1-difluoro-3-(1H-pyrazol-3-yl)propan-2-ol], for which the MIC in assay [1] was found to be 1.5 µg/mL (≈ 3.59 µM).

On to `OC(Cc1cc[nH]n1)(c1ccc(F)cc1F)C(F)(F)c1ccc(-n2ccnn2)cn1` (stereo not drawn) [Compound 64, 1-(5-(1H-1,2,3-Triazol-1-yl)pyridin-2-yl)-2-(2,4-difluorophenyl)-1,1-difluoro-3-(1H-pyrazol-3-yl)propan-2-ol], for which, in assay [1], the MIC is > 4 µg/mL.

On to `OC(Cc1cn[nH]c1)(c1ccc(F)cc1F)C(F)(F)c1ccccn1` (stereo not drawn) [Compound 65, 2-(2,4-Difluorophenyl)-1,1-difluoro-3-(1H-pyrazol-4-yl)-1-(pyridin-2-yl)propan-2-ol], for which, in assay [1], the MIC fell in the range of 1.5 to 4 µg/mL (≈ 4.27 to 11.4 µM).

Turning to `O=C(c1ccc(C(F)(F)C(O)(Cn2cnnn2)c2ccc(F)cc2F)nc1)c1ccc(F)c(F)c1` (stereo not drawn) [Compound 70, (3,4-Difluorophenyl)(6-(2-(2,4-difluorophenyl)-1,1-difluoro-2-hydroxy-3-(1H-tetrazol-1-yl)propyl)pyridin-3-yl)methanone], in assay [1], the MIC is ≤ 0.5 µg/mL.

As for `OC(c1ccc(C(F)(F)F)cc1)c1ccc(C(F)(F)C(O)(Cn2cnnn2)c2ccc(F)cc2F)nc1` (stereo not drawn) [Compound 72, 2-(2,4-Difluorophenyl)-1,1-difluoro-1-(5-(hydroxy(4-(trifluoromethyl)phenyl)methyl)pyridin-2-yl)-3-(1H-tetrazol-1-yl)propan-2-ol], the MIC in assay [1] was in the range of 1.5 to 4 µg/mL (≈ 2.84 to 7.58 µM).

With `OC(Cn1cnnn1)(c1ccc(F)cc1F)C(F)(F)c1ccc(C(F)(F)c2ccc(Cl)cc2)cn1` (stereo not drawn) [Compound 74, 1-(5-((4-Chlorophenyl)difluoromethyl)pyridin-2-yl)-2-(2,4-difluorophenyl)-1,1-difluoro-3-(1H-tetrazol-1-yl)propan-2-ol], the MIC in assay [1] fell in the range of 1.5 to 4 µg/mL (≈ 2.92 to 7.78 µM).

For `OC(Cn1cnnn1)(c1ccc(F)cc1F)C(F)(F)c1ccc(-c2ccc(Br)s2)cn1` (stereo not drawn) [Compound 78, 1-(5-(5-Bromothiophen-2-yl)pyridin-2-yl)-2-(2,4-difluorophenyl)-1,1-difluoro-3-(1H-tetrazol-1-yl)propan-2-ol], in assay [1], the MIC is ≤ 0.5 µg/mL.

Consider `N#Cc1ccc(OCc2ccc(C(F)(F)C(O)(Cn3ncnn3)c3ccc(F)cc3F)nc2)cc1` (stereo not drawn) [Compound 80, 4-((6-(2-(2,4-Difluorophenyl)-1,1-difluoro-2-hydroxy-3-(2H-tetrazol-2-yl)propyl)pyridin-3-yl)methoxy)benzonitrile], for which the MIC in assay [1] was > 4 µg/mL.

Regarding `OC(Cn1cnnn1)(c1ccc(F)cc1F)C(F)(F)c1ccc(N2CCOCC2)cn1` (stereo not drawn) [Compound 81, 2-(2,4-Difluorophenyl)-1,1-difluoro-1-(5-morpholinopyridin-2-yl)-3-(1H-tetrazol-1-yl)propan-2-ol], in assay [1], the MIC fell in the range of 1.5 to 4 µg/mL (≈ 3.42 to 9.12 µM).

With `OC(Cn1cnnn1)(c1ccc(F)cc1F)C(F)(F)c1ccc(N2CCCCC2)cn1` (stereo not drawn) [Compound 82, 2-(2,4-Difluorophenyl)-1,1-difluoro-1-(5-(piperidin-1-yl)pyridin-2-yl)-3-(1H-tetrazol-1-yl)propan-2-ol], the MIC in assay [1] lay within 1.5 to 4 µg/mL (≈ 3.44 to 9.17 µM).

For `CC(F)(c1ccc(Br)cn1)C(O)(Cn1cnnn1)c1ccc(F)cc1F` (stereo not drawn) [Compound 84, 3-(5-Bromopyridin-2-yl)-2-(2,4-difluorophenyl)-3-fluoro-1-(1H-tetrazol-1-yl)butan-2-ol], the MIC in assay [1] is 1.5 µg/mL (≈ 3.5 µM).

For the compound `CC(F)(c1ccc(Br)cn1)C(O)(Cn1cnnn1)c1ccc(F)cc1F` (stereo not drawn) [Compound 85, 3-(5-Bromopyridin-2-yl)-2-(2,4-difluorophenyl)-3-fluoro-1-(1H-tetrazol-1-yl)butan-2-ol], the “Septoria Rating (MIC)” value in assay [1] was “C (>1.5-4)”.

As to `OC(Cc1cncs1)(c1ccc(F)cc1F)C(F)(F)c1ccccn1` (stereo not drawn) [Compound 86, 2-(2,4-Difluorophenyl)-1,1-difluoro-1-(pyridin-2-yl)-3-(thiazol-5-yl)propan-2-ol], the MIC in assay [1] is ≤ 0.5 µg/mL.

For the compound `CC(C)OCc1ccc(C(F)(F)C(O)(Cn2cnnn2)c2ccc(F)cc2F)nc1` (stereo not drawn) [Compound 91, 2-(2,4-difluorophenyl)-1,1-difluoro-1-(5-(isopropoxymethyl)pyridin-2-yl)-3-(1H-tetrazol-1-yl)propan-2-ol], the MIC in assay [1] is 1.5 µg/mL (≈ 3.53 µM).

In the case of `OC(Cn1cnnn1)(c1ccc(F)cc1F)C(F)(F)c1ccc(Cc2ccc(Cl)nc2)cn1` (stereo not drawn) [Compound 97, 1-(5-((6-chloropyridin-3-yl)methyl)pyridin-2-yl)-2-(2,4-difluorophenyl)-1,1-difluoro-3-(1H-tetrazol-1-yl)propan-2-ol], the MIC in assay [1] is ≤ 0.5 µg/mL.
